In ChEMBL document CHEMBL1795339, “Novel purine-based fluoroaryl-1,2,3-triazoles as neuroprotecting agents: synthesis, neuronal cell culture investigations, and CDK5 docking studies” (Bioorg Med Chem Lett, 2011) one finds Activity data, which are given here for six compounds.

Active and inactive are the calls of the source. No cut-off for these calls is given here.

The test system of this experiment is Hippocampal neuron. Kind of experiment: Neuroprotective activity against Amyloid beta-induced mouse hippocampal neuronal death at 1 uM pretreated for 1 hr before Amyloid beta treatment measured after 48 hrs using propidium iodide staining by fluorescence […] microscopy. In kind it is functional, tissue-based. Particulars: Hippocampus.
`Clc1nc(NCc2ccccc2)c2ncn(Cc3cn(Cc4ccccc4)nn3)c2n1`: the outcome was Active. The same measure for `Fc1cccc(F)c1Cn1cc(Cn2cnc3c(NCc4ccccc4)nc(Cl)nc32)nn1`: “Active”; for `Fc1ccccc1Cn1cc(Cn2cnc3c(NCc4ccccc4)nc(Cl)nc32)nn1`: “Active”; for `CC[C@H](CO)Nc1nc(NCc2ccccc2)c2ncn(C(C)C)c2n1`: “Active”. For the compound `Fc1c(F)c(F)c(Cn2cc(Cn3cnc4c(NCc5ccccc5)nc(Cl)nc43)nn2)c(F)c1F`, the outcome was inactive.

Consider `CN1CC[C@H](c2c(O)cc(O)c3c(=O)cc(-c4ccccc4Cl)oc23)[C@H](O)C1`, for which the result was Active.
